Reference: US5886011A, “Piperidine derivatives as substance P antagonists” (Hisamitsu Pharmaceutical Co., Inc., priority 1995, dated 1999)
Structures can show the parent of a compound that is named as a salt. Where two headings read alike, the source gives them in different places.

What was measured:
[1] = molecular target: T1, Substance P receptor (guinea pig ileum longitudinal muscle) (Cavia porcellus, UniProt P30547); experiment: Receptor-binding test ([125I]SP ligand, guinea pig ileum longitudinal muscle receptor samples); conditions: 10^-8 M compound; [125I]SP 50 pM, 22° C., 20 minutes
T1 construct: ileum was removed and the longitudinal muscle was stripped off; from tissue; host or cells: guinea pig ileum longitudinal muscle, washed membrane pellets
T1 sequence (P30547 whole entry): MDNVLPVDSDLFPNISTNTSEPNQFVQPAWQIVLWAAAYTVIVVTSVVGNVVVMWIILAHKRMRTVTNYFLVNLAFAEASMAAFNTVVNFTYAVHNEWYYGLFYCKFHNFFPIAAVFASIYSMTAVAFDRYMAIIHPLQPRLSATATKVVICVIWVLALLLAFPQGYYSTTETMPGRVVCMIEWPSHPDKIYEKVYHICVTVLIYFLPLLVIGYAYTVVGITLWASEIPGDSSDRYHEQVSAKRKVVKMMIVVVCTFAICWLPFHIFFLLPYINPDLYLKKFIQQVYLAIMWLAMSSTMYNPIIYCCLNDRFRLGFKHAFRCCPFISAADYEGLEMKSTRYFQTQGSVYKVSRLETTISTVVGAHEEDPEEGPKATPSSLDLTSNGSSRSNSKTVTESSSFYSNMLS
Experimental: To the longitudinal muscles, 20 times of the wet weight of the buffer solution (1) (50 mM tris-HCl buffer solution containing 2 mM MgCl2 and 0.1 mM phenyl methyl sulfonyl-fluoride, pH 7.4) was added. The mixture was homogenized under ice-cooling and centrifuged at 48,000×G for 15 minutes. After removing the supernatant, the pellets were re-suspended in the buffer solution (1) and centrifuged at 48,000×G for 15 minutes. The buffer solution (2) (50 mM tris.HCl buffer solution containing 10 mM ethylenediaminetetraacetic acid and 300 mM KCl, pH 7.4) was added to the pellets and suspended to be reacted under ice-cooling for 60 minutes. The resulted reaction materials were centrifuged at 48,000×G for 15 minutes. After suspending the pellets in the buffer solution (1) and distributing, the mixture were centrifuged at 48,000×G for 15 minutes. The pellets were stored at -80° C. until used as receptor samples.
Thus obtained receptor samples were suspended in 50 mM tris-HCl buffer solution to be used. As the buffer solution, binding buffer solution (tris.HCl buffer solution containing 0.02% bovine serum albumin, 40 μg/ml bacitracin, 4 μg/ml chymostatin, 4 μg/ml leupeptin and 3 mM MnCl2, pH7.4) was used.

[2] = tested on: Substance P (guinea pig ileum); experiment: Bioassay test: Substance P-induced contraction of guinea pig ileum strips; conditions: 10^-7 M compound; contraction by 10^-8 M Substance P regarded as 100%
Experimental: B. Bioassay Test […] After exsanguinating guinea pigs (body weight: 500-600 g) deadly, ileum was removed and 2 cm of ileum strips were prepared. In a Tyrode's solution (10 ml, 37° C.) in which air is passed, containing 5.2 μM atropine and 4.1 μM indomethacin, the strips having 0.5 g resting tension was suspended, and contractions of muscle were recorded on a recording device (RTA-1200, manufactured by Nihon Kohden) via an isotonic transducer (TB-612T, manufactured by Nihon Kohden). Using three specimens per one group, effects of the subject drugs on the muscle contraction caused by 10^-8 M Substance P were determined.

Substance P = experiment: Antagonism test on Substance P-induced airway edema; assay type: in vivo, guinea pig (hartley male); conditions: Cavia porcellus, po, read-out: Inhibition Rate (airway edema, dye transudated into trachea and main bronchi)
Experimental: C. Antagonism Test on Substance P-induced Airway Edema
20 mg/kg of Evans' Blue and 1 nm/kg Substance P containing 200 I.U./kg of heparin were administered intravenously to hartley male guinea pigs in order to induce airway edema. After ten minutes, the guinea pigs were exsanguinated deadly. The amounts of the dye transudated into trachea and main bronchi were determined. 1 mg/kg of the subject compounds were administered orally at thirty minutes before the induction. […] Further, for comparison, the following compounds A and B were used.

[3] = 1 mg/kg orally, thirty minutes before induction, compared to the control group

Work on `CC1Cc2cccc(CN[C@H]3CCCN[C@H]3c3ccccc3)c2O1.Cl` (single isomer, unassigned) [Example 3, hydrochloride] yielded an inhibition at 0.01 µM [1] of 96%.
With `CC1Cc2cccc(CN[C@H]3CCCN[C@H]3c3ccccc3)c2O1.Cl` (single isomer, unassigned) [Example 3] the “Contriction Inhibition” value [2] was 93.2%.
Compound `COc1ccc(OC(F)(F)F)cc1CN[C@H]1CCCN[C@H]1c1ccccc1` [Compound B, (2S,3S)-3-(2-methoxy-5-trifluoromethoxybenzyl)amino-2-phenylpiperidine hydrochloride, reference compound] has an inhibition in vivo at 1 mg/kg (Substance P) of 44%.
In the case of `CC1(C)Cc2cccc(CN[C@H]3CCCN[C@H]3c3ccccc3)c2O1.Cl` [Example 2, (2S,3S)-3-[(2,2-dimethyl-2,3-dihydrobenzofuran-7-yl)methyl]amino-2-phenylpiperidine hydrochloride], the inhibition at 0.01 µM [1] is reported as 74.8% and the “Contriction Inhibition” value [2] is reported as 47.0%.
With `CC1(C)Cc2cc([N+](=O)[O-])cc(CN[C@H]3CCCN[C@H]3c3ccccc3)c2O1.Cl` [Example 4, (2S,3S)-3-[(2,2-dimethyl-5-nitro-2,3-dihydrobenzofuran-7-yl)methyl]amino-2-phenylpiperidine hydrochloride] the inhibition at 0.01 µM [1] was 89.7% and the “Contriction Inhibition” value [2] was 60.2%.
In the case of `CSc1cc(CN[C@H]2CCCN[C@H]2c2ccccc2)c2c(c1)CC(C)(C)O2.Cl` [Example 5, (2S,3S)-3-[(2,2-dimethyl-5-methylthio-2,3-dihydrobenzofuran-7-yl)methyl]amino-2-phenylpiperidine hydrochloride], the inhibition at 0.01 µM [1] is reported as 91.8% and the “Contriction Inhibition” value [2] is reported as 80.5%.
With `CC1(C)Cc2cc(S(C)(=O)=O)cc(CN[C@H]3CCCN[C@H]3c3ccccc3)c2O1.Cl` [Example 6, (2S,3S)-3-[(2,2-dimethyl-5-methylsulfonyl-2,3-dihydrobenzofuran-7-yl)methyl]amino-2-phenylpiperidine hydrochloride] the inhibition at 0.01 µM [1] was 74.8% and the “Contriction Inhibition” value [2] was 50.9%.
In the case of `CN(C)S(=O)(=O)c1cc(CN[C@H]2CCCN[C@H]2c2ccccc2)c2c(c1)CC(C)(C)O2.Cl` [Example 7, (2S,3S)-3-[(2,2-dimethyl-5-dimethylaminosulfonyl-2,3-dihydrobenzofuran-7-yl)methyl]amino-2-phenylpiperidine hydrochloride], the inhibition at 0.01 µM [1] is reported as 54% and the “Contriction Inhibition” value [2] is reported as 15.0%.
`CC1Cc2cc(S(=O)(=O)N(C)C)cc(CN[C@H]3CCCN[C@H]3c3ccccc3)c2O1` (stereo partly drawn) [Example 8, (2S,3S)-3-[(5-dimethlaminosulfonyl-2-methyl-2,3-dihydrobenzofuran-7-yl)methyl]amino-2-phenylpiperidine hydrochloride] was tested, and the inhibition at 0.01 µM [1] was 92% and the “Contriction Inhibition” value [2] was 85.0%.
In the case of `Cl.c1ccc([C@@H]2NCCC[C@@H]2NCc2ccc3c(c2)OCO3)cc1` [Example 9, (2S,3S)-3-(3,4-methylenedioxybenzyl)amino-2-phenylpiperidine hydrochloride], the inhibition at 0.01 µM [1] is reported as 36.6% and the “Contriction Inhibition” value [2] is reported as 5.5%.
`c1ccc([C@@H]2NCCC[C@@H]2NCc2cccc3c2OCCC3)cc1` [Example 10, (2S,3S)-3-[(3,4-dihydro-1,2-benzopyran-8-yl)methyl]amino-2-phenylpiperidinehydrochloride] was tested, and the inhibition at 0.01 µM [1] was 86.2% and the “Contriction Inhibition” value [2] was 61.8%.
For `CC1(C)Cc2cc(Cl)cc(CN[C@H]3CCCN[C@H]3c3ccccc3)c2O1.Cl` [Example 11, (2S,3S)-3-[(5-chloro-2,2-dimethyl-2,3-dihydrobenzofuran-7-yl)methyl]amino-2-phenylpiperidine hydrochloride], the inhibition at 0.01 µM [1] was 85.8% and the “Contriction Inhibition” value [2] was 58.2%.
For `COc1cc(CN[C@H]2CCCN[C@H]2c2ccccc2)c2c(c1)CC(C)(C)O2` [Example 12, (2S,3S)-3-[(2,2-dimethyl-5-methoxy-2,3-dihydrobenzofuran-7-yl)methyl]amino-2-phenylpiperldine hydrochloride], the inhibition at 0.01 µM [1] was 82.2% and the “Contriction Inhibition” value [2] was 43.0%.
With `Cl.c1ccc([C@@H]2NCCC[C@@H]2NCc2cccc3c2OCC3)cc1` [Example 13, (2S,3S)-3-[(2,3-dihydrobenzofuran-7-yl)methyl]amino-2-phenylpiperidine hydrochloride] the inhibition at 0.01 µM [1] was 84.7% and the “Contriction Inhibition” value [2] was 47.4%.
For `CC1Cc2cc(Cl)cc(CN[C@H]3CCCN[C@H]3c3ccccc3)c2O1.Cl` (stereo partly drawn) [Example 14, (2S,3S)-3-[(5-chloro-2-methyl-2,3-dihydrobenzofuran-7-yl)methyl]amino-2-phenylpiperidine hydrochloride], the inhibition at 0.01 µM [1] was 93.5% and the “Contriction Inhibition” value [2] was 92.3%.
With `COc1cc(CN[C@H]2CCCN[C@H]2c2ccccc2)c2c(c1)CC(C)O2.Cl` (stereo partly drawn) [Example 15, (2S,3S)-3-[(5-methoxy-2-methyl-2,3-dihydrobenzofuran-7-yl)methyl]amino-2-phenylpiperidine hydrochloride] the inhibition at 0.01 µM [1] was 88.1% and the “Contriction Inhibition” value [2] was 75.2%.
`Cc1ccc(CN[C@H]2CCCN[C@H]2c2ccccc2)c2c1CC(C)(C)O2` [Example 16, (2S,3S)-3-[2,2,4-trimethyl-2,3-dihydrobenzofuran-7-yl)methyl]amino-2-phenylpiperidine hydrochloride] was tested, and the inhibition at 0.01 µM [1] was 82.5% and the “Contriction Inhibition” value [2] was 78.3%.
`Cc1cc(CN[C@H]2CCCN[C@H]2c2ccccc2)c2c(c1)CC(C)(C)O2.Cl` [Example 17, (2S,3S)-3-[(2,2,5-trimethyl-2,3-dihydrobenzofuran-7-yl)methyl]amino-2-phenylpiperidine hydrochloride] was tested, and the inhibition at 0.01 µM [1] was 94.2% and the “Contriction Inhibition” value [2] was 94.6%.
In the case of `CC1(C)Cc2c(Cl)ccc(CN[C@H]3CCCN[C@H]3c3ccccc3)c2O1.Cl` [Example 18, (2S,3S)-3-[(4-chloro-2,2-dimethyl-2,3-dihydrobenzofuran-7-yl)methyl]amino-2-phenylpiperidine hydrochloride], the inhibition at 0.01 µM [1] is reported as 89.9% and the “Contriction Inhibition” value [2] is reported as 81.2%.
For `Cl.c1ccc([C@@H]2NCCC[C@@H]2NCc2ccc3c(c2)OCCO3)cc1` [Example 19, (2S,3S)-3-(3,4-ethylenedioxybenzyl)amino-2-phenylpiperidine hydrochloride], the inhibition at 0.01 µM [1] was 48.7% and the “Contriction Inhibition” value [2] was 22.1%.
With `CC1Oc2c(CN[C@H]3CCCN[C@H]3c3ccccc3)cccc2C1C.Cl` (stereo partly drawn) [Example 20, (2S,3S)-3-[(2,3-dimethyl-2,3-dihydrobenzofuran-7-yl)methyl]amino-2-phenylpiperidine hydrochloride] the inhibition at 0.01 µM [1] was 65% and the “Contriction Inhibition” value [2] was 38.9%.
For `Cc1ccc(CN[C@H]2CCCN[C@H]2c2ccccc2)c2c1C(C)C(C)O2.Cl` (stereo partly drawn) [Example 21, (2S,3S)-3-[(2,3,4-trimethyl-2,3-dihydrobenzofuran-7-yl)methyl]amino-2-phenylpiperidine hydrochloride], the inhibition at 0.01 µM [1] was 53.1% and the “Contriction Inhibition” value [2] was 13.4%.
In the case of `CC(C)(C)c1cc2c(c(CN[C@H]3CCCN[C@H]3c3ccccc3)c1)OCC2.Cl` [Example 24, (2S,3S)-3-[(5-tert-butyl-2,3-dihydrobenzofuran-7-yl)methyl]amino-2-phenylpiperidine hydrochloride], the inhibition in vivo at 1 mg/kg (Substance P; [3]) is reported as 64%, the inhibition at 0.01 µM [1] is reported as 50.3% and the “Contriction Inhibition” value [2] is reported as 69.5%.
In the case of `Cl.c1ccc([C@@H]2NCCC[C@@H]2NCc2cc(C3CCCCC3)cc3c2OCC3)cc1` [Example 26, (2S,3S)-3-[(5-cyclohexyl-2,3-dihydrobenzofuran-7-yl)methyl]amino-2-phenylpiperidine hydrochloride], the inhibition in vivo at 1 mg/kg (Substance P; [3]) is reported as 61%, the inhibition at 0.01 µM [1] is reported as 56.4% and the “Contriction Inhibition” value [2] is reported as 62.1%.
